In patent publication US5112810A, “Method for treating multiple sclerosis” (Mitsui Pharmaceuticals, Inc., priority 1981, dated 1992):
Where a SMILES comes first, the peptide text is derived from it. [ ]: non-standard residue; d: D form. pGlu = O=C1CC[C@@H](C(=O)O)N1

Tested on: male Hartley guinea pig
Experiment: Toxicity (Experiment 3)
Format: in vivo
Details: FTS 100 mg/kg
Method: Toxicity was studied by treating a male Hartley guinea pig with FTS at a dose of 100 mg/kg and observing the animal for one-week. This animal was still alive at the end of one-week observation period.

C[C@H](NC(=O)[C@@H]1CCC(=O)N1)C(=O)N[C@@H](CCCCN)C(=O)N[C@@H](CO)C(=O)N[C@@H](CCC(N)=O)C(=O)NCC(=O)NCC(=O)N[C@@H](CO)C(=O)N[C@@H](CC(N)=O)C(=O)O [FTS, p-Glu-Ala-Lys-Ser-Gln-Gly-Gly-Ser-Asn-Oh] ([pGlu]AKSQGGSN-OH)
Toxicity: survival at the end of one-week observation: still alive
